Key:
Assay type in all cases: in vivo
flies (family Muscidae) [1] = experiment: Oviposition inhibition tests (treated fly food; Examples 6-9)
Experimental: The compound to be tested was administered in a standard fly food containing 6 parts of sugar, 6 parts of powdered non-fat dry milk, and 1 part of powdered egg yolk. Treated food was prepared by mixing an appropriate amount of a solution or suspension of CBCP in acetone with a batch of the food. The acetone was evaporated (4-6 hours) and the dry material was repulverized. Oviposition inhibition tests: Samples of treated food with a container of water were placed in cages containing 100 newly-emerged adult flies (family Muscidae). After the flies had been exposed to the treated diet for 6-7 days, 1/2 inch of moist standard fly larva-rearing medium (CSMA) in souffle cups was placed in the cages for oviposition. After 4-6 hours, the cup was removed and examined for eggs. […] The procedure outlined in Example 6 was followed using a Group II compound. The procedure outlined in Example 6 was followed using Group III compounds. The results are summarized below: The procedure outlined in Example 6 was followed substituting a Group IV compound for those of Group I. The table below provides a summary of results.

flies (family Muscidae) [2] = experiment: Chemosterilancy tests (egg hatch and pupal development; Examples 6-9)
Experimental: The compound to be tested was administered in a standard fly food containing 6 parts of sugar, 6 parts of powdered non-fat dry milk, and 1 part of powdered egg yolk. Treated food was prepared by mixing an appropriate amount of a solution or suspension of CBCP in acetone with a batch of the food. The acetone was evaporated (4-6 hours) and the dry material was repulverized.
Chemosterilancy tests: If eggs were laid in the above tests, the cups were filled with water and stirred to break up the egg masses. A random sample of 100 eggs from each cup was collected and placed on a small piece of black cloth which was then laid on top of moist larva-rearing medium in a rearing container. Observations were made to determine percentage of egg hatch and pupal development.
The procedure outlined in Example 6 was followed using a Group II compound.
The procedure outlined in Example 6 was followed using Group III compounds. The results are summarized below:
The procedure outlined in Example 6 was followed substituting a Group IV compound for those of Group I. The table below provides a summary of results.

[3] = system: early fourth-stage larvae of the common malaria mosquito (Anopheles quadrimaculatus); experiment: Growth-inhibition tests on mosquito larvae; details: in water; corrected by Abbott's formula
Experimental: The compound to be tested was added to one liter of water until the final concentration thereof was a growth-inhibiting amount. Fifty early fourth-stage larvae of the common malaria mosquito (Anopheles quadrimaculatus) were placed on this water. Larval food was administered daily. Dead larvae and pupae were removed, counted, and discarded daily. Live pupae were removed, rinsed, and transferred to a cup of distilled water. The cup was placed in an emergence cage, and the emerging adults, if any, were maintained on a sugar-water diet.
The effectiveness of the compound in inhibiting growth was determined by adding the number of dead larvae and pupae and the number of adults that were dead, unable to complete eclosion, and malformed. This sum was corrected by Abbott's formula (to adjust for the number of larvae or pupae which would die naturally) and designated as the GI (growth inhibition). The results are expressed as GI-90, i.e., the concentration of growth inhibitor in ppm that would prevent and/or retard growth in 90% of the treated larvae.

Row | SMILES | Mortality, parent generation (flies (family Muscidae) [1]; 0.25% in food) [%] | Mortality, parent generation (flies (family Muscidae) [1]; 0.5% in food) [%] | Egg hatch (flies (family Muscidae) [2]; 0.25% in food) [%] | Pupal development (flies (family Muscidae) [2]; 0.25% in food) [%] | Egg hatch (flies (family Muscidae) [2]; 0.5% in food) [%] | Pupal development (flies (family Muscidae) [2]; 0.5% in food) [%] | GI-90 (concentration of growth inhibitor that would prevent and/or retard growth in 90% of the treated larvae) [3] [ppm] | Mortality, parent generation (flies (family Muscidae) [1]; 0.05% in food) [%] | Mortality, parent generation (flies (family Muscidae) [1]; 0.1% in food) [%] | Egg hatch (flies (family Muscidae) [2]; 0.05% in food) [%] | Pupal development (flies (family Muscidae) [2]; 0.05% in food) [%] | Egg hatch (flies (family Muscidae) [2]; 0.1% in food) [%] | Pupal development (flies (family Muscidae) [2]; 0.1% in food) [%] | also measured
1 | COc1cc2c(cc1C(C)c1ccccc1)OCO2 (stereo not drawn) [Compound T, (α-Methylbenzyl)-3,4-methylenedioxy-6-methoxybenzene] | 60 | 42 | 56 | 56 | 0 | 0 | 0.6 | – | – | – | – | – | – | –
2 | COc1ccc(Cc2cc3c(cc2OCC(C)C)OCO3)cc1 [Q, (4-Methoxybenzyl)-3,4-methylenedioxy-6-iso-butoxybenzene] | 0 | 90 | 0 | 0 | – | – | 0.082 | 0 | 0 | 28 | 28 | 0 | 0 | –
3 | CCCCOc1cc2c(cc1C(C)c1ccc(OC)cc1)OCO2 (stereo not drawn) [J, (α-methyl-4-methoxybenzyl)-3,4-methylenedioxy-6-n-butoxybenzene] | – | – | – | – | – | – | 0.025 | 0 | – | 3 | 3 | – | – | Mortality, parent generation (flies (family Muscidae) [1]; 0.01% in food): 0%; Mortality, parent generation (flies (family Muscidae) [1]; 0.025% in food): 0%; Egg hatch (flies (family Muscidae) [2]; 0.025% in food): 61%; Pupal development (flies (family Muscidae) [2]; 0.025% in food): 61%
4 | CCCCOc1cc2c(cc1C(C)c1ccccc1)OCO2 (stereo not drawn) [V, (α-Methylbenzyl)-3,4-methylenedioxy-6-n-butoxybenzene] | – | 0 | – | – | 34 | 34 | 0.097 | – | – | – | – | – | – | –
5 | COc1ccc(Cc2cc3c(cc2OCCC(C)C)OCO3)cc1 [S, (4-Methoxybenzyl)-3,4-methylenedioxy-6-iso-pentoxybenzene] | 0 | 0 | 0 | 0 | 0 | 0 | 0.036 | 0 | 0 | 55 | 55 | 6 | 6 | –
6 | CCOc1c(C)cc(Cc2ccc3c(c2)OCO3)cc1C [KK] | 0 | 85 | 85 | 85 | – | – | 0.9 | – | – | – | – | – | – | –
7 | CC(c1ccccc1)c1cc(C(C)(C)C)c(O)c(C(C)(C)C)c1 (stereo not drawn) [E, 2,6-Di-t-butyl-4-(α-methylbenzyl)phenol] | 0 | 0 | 0 | 0 | 0 | 0 | 0.072 | – | 0 | – | – | 36 | 36 | Mortality, parent generation (flies (family Muscidae) [1]; 1.0% in food): 0%; Oviposition (flies (family Muscidae) [1]; 1.0% in food): Normal; Egg hatch (flies (family Muscidae) [2]; 1.0% in food): 0%; Pupal development (flies (family Muscidae) [2]; 1.0% in food): 0%
8 | CCCOc1cc2c(cc1C(C)c1ccccc1)OCO2 (stereo not drawn) [U, (α-Methylbenzyl)-3,4-methylenedioxy-6-n-propoxybenzene] | 0 | 0 | 0 | 0 | 0 | 0 | 0.3 | 0 | 0 | 0 | 0 | 0 | 0 | Mortality, parent generation (flies (family Muscidae) [1]; 0.025% in food): 0%; Mortality, parent generation (flies (family Muscidae) [1]; 1.0% in food): 0%; Egg hatch (flies (family Muscidae) [2]; 0.025% in food): 42%; Pupal development (flies (family Muscidae) [2]; 0.025% in food): 42%; Egg hatch (flies (family Muscidae) [2]; 1.0% in food): 0%; Pupal development (flies (family Muscidae) [2]; 1.0% in food): 0%
9 | COc1ccc(Cc2cc3c(cc2OC(C)C)OCO3)cc1 [O, (4-Methoxybenzyl)-3,4-methylenedioxy-6-iso-propoxybenzene] | 0 | 80 | 0 | 0 | – | – | 0.8 | 0 | – | 48 | 48 | – | – | –

Reference: patent US4357344A, “Polybutylbenzylphenols and benzyl-3,4-methylenedioxybenzenes in insect population control” (The United States of America as represented by the …, priority 1979, dated 1982)
